Measurements from patent US20160113282A1 (HONBU SANKEI CO., LTD., priority 2013, published 2016).
Where two headings read alike, the source gives them in different places.

Tests used:
[1] = system: feline calicivirus F4 strain; assay: In vitro test in test tube, feline caliciviruses (Example 11); type: cell-based
[2] = system: feline calicivirus F4 strain; assay: Inactivation of feline caliciviruses (Example 10), plaque assay on CRFK cells; type: cell-based; settings: 30 minutes at 25° C. (FIG. 10)
[3] = system: HEp-2 cells; assay: Impairment in colony formation capability; type: cell-based, human; settings: phosphoric acid buffer (FIG. 7)
[4] = system: influenza virus Type A Aichi strain A/Aichi/68 (H3N2); type: cell-based; settings: 10 ppm; for ratio of the amount of residual infectious viruses: 30 minutes at 25° C., PBS = 1.00
[5] = system: Herpes simplex virus type I VR-539; assay: Inactivation of herpesviruses, plaque assay on Vero cells; type: cell-based
[6] = system: Vero cells; assay: Impairment in colony formation capability; type: cell-based, African green monkey; settings: phosphoric acid buffer (FIG. 7)
[7] = system: HEp-2 cells; settings: human, 20 min

## OCl [Sodium hypochlorite aqueous solution, sodium hypochlorite]
[1]; pH 8.5, 100 ppm, contact 5 min
  number of infectious viruses: <2.0 log CPU/mL
[1]; pH 8.5, 100 ppm, contact 10 min
  number of infectious viruses: <2.0 log CPU/mL
[1]; pH 8.5, 200 ppm, contact 0 min
  number of infectious viruses: 4.7 ± 2.8 log CPU/mL
[1]; pH 8.5, 200 ppm, contact 1 min
  number of infectious viruses: 2.5 ± 2.3 log CPU/mL
[1]; pH 8.5, 200 ppm, contact 5 min
  number of infectious viruses: <2.0 log CPU/mL
[1]; pH 8.5, 200 ppm, contact 10 min
  number of infectious viruses: <2.0 log CPU/mL
[1]; pH 8.5, 400 ppm, contact 0 min
  number of infectious viruses: 4.7 ± 2.8 log CPU/mL
[1]; pH 8.5, 400 ppm, contact 1 min
  number of infectious viruses: <2.0 log CPU/mL
[1]; pH 8.5, 400 ppm, contact 5 min
  number of infectious viruses: <2.0 log CPU/mL
[1]; pH 8.5, 400 ppm, contact 10 min
  number of infectious viruses: <2.0 log CPU/mL
[1]; pH unadjusted, 25 ppm, contact 0 min
  number of infectious viruses: 6.4 ± 2.7 log CPU/mL
[1]; pH unadjusted, 25 ppm, contact 10 min
  number of infectious viruses: >10^6 log CPU/mL
[1]; pH unadjusted, 50 ppm, contact 0 min
  number of infectious viruses: 6.4 ± 2.7 log CPU/mL
[1]; pH unadjusted, 50 ppm, contact 1 min
  number of infectious viruses: 3.5 ± 2.1 log CPU/mL
[1]; pH unadjusted, 50 ppm, contact 5 min
  number of infectious viruses: 2.9 ± 2.7 log CPU/mL
[1]; pH unadjusted, 50 ppm, contact 10 min
  number of infectious viruses: <2.0 log CPU/mL
[1]; pH unadjusted, 100 ppm, contact 0 min
  number of infectious viruses: 6.4 ± 2.7 log CPU/mL
[1]; pH unadjusted, 100 ppm, contact 1 min
  number of infectious viruses: <2.0 log CPU/mL
[1]; pH unadjusted, 100 ppm, contact 5 min
  number of infectious viruses: <2.0 log CPU/mL
[1]; pH unadjusted, 100 ppm, contact 10 min
  number of infectious viruses: <2.0 log CPU/mL
[1]; pH unadjusted, 200 ppm, contact 0 min
  number of infectious viruses: 6.4 ± 2.7 log CPU/mL
[1]; pH unadjusted, 200 ppm, contact 1 min
  number of infectious viruses: <2.0 log CPU/mL
[1]; pH unadjusted, 200 ppm, contact 5 min
  number of infectious viruses: <2.0 log CPU/mL
[1]; pH unadjusted, 200 ppm, contact 10 min
  number of infectious viruses: <2.0 log CPU/mL
[1]; pH unadjusted, 400 ppm, contact 0 min
  number of infectious viruses: 6.4 ± 2.7 log CPU/mL
[1]; pH unadjusted, 400 ppm, contact 1 min
  number of infectious viruses: <2.0 log CPU/mL
[1]; pH unadjusted, 400 ppm, contact 5 min
  number of infectious viruses: <2.0 log CPU/mL
[1]; pH unadjusted, 400 ppm, contact 10 min
  number of infectious viruses: <2.0 log CPU/mL
[2]; pH 4.5 and pH 7.5
  effect of pH on inactivation of feline caliciviruses: greatly affected by pH
[2]; pH of 4.5
  feline caliciviruses inactivation capability: lost
[3]
  concentration at which impairment in colony formation was observed: ≤ 5 ppm
[4]; each pH from pH 5.5 to pH 8.8
  viruses inactivated to (detectable limit): < 10^−5
[4]; pH 5.5
  ratio of the amount of residual infectious viruses: <0.0002
[4]; pH 6.5
  ratio of the amount of residual infectious viruses: <0.0002
[4]; pH 7.5
  ratio of the amount of residual infectious viruses: <0.0002
[4]; pH 8.5
  ratio of the amount of residual infectious viruses: <0.0002
[5]; acidic conditions of pH 5.5 or lower
  sterilizing effect on herpesvirus type I: diminished
[5]; pH 4.5, 10 ppm
  Number of Residual Viruses in Test Solution/Number of Residual Viruses only with Buffer × 100 (%): 80%
[5]; pH 4.5, 50 ppm
  Number of Residual Viruses in Test Solution/Number of Residual Viruses only with Buffer × 100 (%): 67.4%
[5]; pH 4.5, 100 ppm
  Number of Residual Viruses in Test Solution/Number of Residual Viruses only with Buffer × 100 (%): 63.1%
[5]; pH 4.5, 150 ppm
  Number of Residual Viruses in Test Solution/Number of Residual Viruses only with Buffer × 100 (%): 23.3%
[5]; pH 4.5, 200 ppm
  Number of Residual Viruses in Test Solution/Number of Residual Viruses only with Buffer × 100 (%): 35.2%
[5]; pH 5.5, 10 ppm
  Number of Residual Viruses in Test Solution/Number of Residual Viruses only with Buffer × 100 (%): 14.3%
[5]; pH 5.5, 50 ppm
  Number of Residual Viruses in Test Solution/Number of Residual Viruses only with Buffer × 100 (%): 90.9%
[5]; pH 5.5, 100 ppm
  Number of Residual Viruses in Test Solution/Number of Residual Viruses only with Buffer × 100 (%): 96.4%
[5]; pH 5.5, 150 ppm
  Number of Residual Viruses in Test Solution/Number of Residual Viruses only with Buffer × 100 (%): <0.2%
[5]; pH 5.5, 150 ppm, listed as sodium hypochlorite aqueous solution
  Number of Residual Viruses in Test Solution/Number of Residual Viruses only with Buffer × 100 (%): below the detectable limit
[5]; pH 5.5, 200 ppm
  Number of Residual Viruses in Test Solution/Number of Residual Viruses only with Buffer × 100 (%): <0.5%
[5]; pH 5.5, 200 ppm, listed as sodium hypochlorite aqueous solution
  Number of Residual Viruses in Test Solution/Number of Residual Viruses only with Buffer × 100 (%): below the detectable limit
[5]; pH 6.5, 10 ppm
  Number of Residual Viruses in Test Solution/Number of Residual Viruses only with Buffer × 100 (%): <6%
[5]; pH 6.5, 50 ppm
  Number of Residual Viruses in Test Solution/Number of Residual Viruses only with Buffer × 100 (%): <0.3%
[5]; pH 6.5, 100 ppm
  Number of Residual Viruses in Test Solution/Number of Residual Viruses only with Buffer × 100 (%): <0.3%
[5]; pH 6.5, 150 ppm
  Number of Residual Viruses in Test Solution/Number of Residual Viruses only with Buffer × 100 (%): <0.2%
[5]; pH 6.5, 200 ppm
  Number of Residual Viruses in Test Solution/Number of Residual Viruses only with Buffer × 100 (%): <0.6%
[5]; pH 7.5, 10 ppm
  Number of Residual Viruses in Test Solution/Number of Residual Viruses only with Buffer × 100 (%): 20%
[5]; pH 7.5, 50 ppm
  Number of Residual Viruses in Test Solution/Number of Residual Viruses only with Buffer × 100 (%): <0.3%
[5]; pH 7.5, 100 ppm
  Number of Residual Viruses in Test Solution/Number of Residual Viruses only with Buffer × 100 (%): <0.3%
[5]; pH 7.5, 150 ppm
  Number of Residual Viruses in Test Solution/Number of Residual Viruses only with Buffer × 100 (%): <0.2%
[5]; pH 7.5, 200 ppm
  Number of Residual Viruses in Test Solution/Number of Residual Viruses only with Buffer × 100 (%): <0.4%
[5]; pH 8.5, 10 ppm
  Number of Residual Viruses in Test Solution/Number of Residual Viruses only with Buffer × 100 (%): 36%
[5]; pH 8.5, 50 ppm
  Number of Residual Viruses in Test Solution/Number of Residual Viruses only with Buffer × 100 (%): <0.3%
[5]; pH 8.5, 100 ppm
  Number of Residual Viruses in Test Solution/Number of Residual Viruses only with Buffer × 100 (%): <0.3%
[5]; pH 8.5, 150 ppm
  Number of Residual Viruses in Test Solution/Number of Residual Viruses only with Buffer × 100 (%): <0.2%
[5]; pH 8.5, 200 ppm
  Number of Residual Viruses in Test Solution/Number of Residual Viruses only with Buffer × 100 (%): <0.4%
[5]; pH conditions of 6.5-8.5
  concentration reducing HSV-I to below the detectable limit: ≥ 50 ppm
[6]
  concentration at which impairment in colony formation was observed: ≤ 5 ppm
[7]
  concentration that generated dead cells: about 0.5 ppm
